Results reported in patent publication US20220144847A1, “HETEROCYCLIC COMPOUND, PHARMACEUTICAL COMPOSITION COMPRISING SAME, PREPARATION METHOD THEREFOR, AND USE THEREOF” (Sichuan Kelun-Biotech Biopharmaceutical Co., Ltd., priority 2019, published 2022).
Like-named read-outs stand apart in the source and are kept apart here.

Experiments:
RET-V804M = RET-V804M (Homo sapiens, UniProt P07949, V804M); assay: RET inhibition experiment (HTRF KinEASE-TK kit), mutant RET-V804M; assay type: biochemical; conditions: for IC50: read-out: The IC50 (nM) for inhibiting V804M
Description: Experimental method: According to the instructions of the HTRF KinEASE-TK kit (Cisbio), the compounds of the present disclosure were tested for their inhibitory effects on the activity of wild-type RET enzyme, mutant RET enzyme (RET-V804M, RET-V804L, and RET-M918T) and fusion-type RET enzyme (RET-CCDCl6). After pre-incubation of different RET enzymes and different concentrations of the test compounds at room temperature for 30 min, a substrate and adenosine triphosphate (ATP) were added to initiate the reaction. After incubation at room temperature for 40 min, TK antibody-cryptate and streptavidin-XL665 were added, and the test was performed after incubation at room temperature for 45 min. With the solvent group (DMSO) as the negative control and the buffer group (without RET enzyme) as the blank control, the relative inhibitory activity percentages (i.e., inhibition rates) of different concentrations of the compounds were computed as per the following formula:
(§1) Relative inhibitory activity percentage=1−(compound group of different concentrations−blank control)/(negative control−blank control)*100%
(§2) The relative inhibitory activity percentages of different concentrations of the compounds were plotted with respect to the compound concentrations, and the curve was fitted according to a four-parameter model to compute the IC50 value as per the following formula:
(§3) y=min+(max−min)/(1+(x/IC50)^(−Hillslope))
(§4) where y is the relative inhibitory activity percentage, max is the maximum value of the fitted curve, min is the minimum value of the fitted curve, x is the logarithmic concentration of the compound, and Hillslope is the slope of the curve.

VEGFR2 = VEGFR2 (Homo sapiens, UniProt P35968); assay: VEGFR2 inhibition experiment (HTRF KinEASE-TK kit); assay type: biochemical; conditions: read-out: Inhibition rate on VEGFR2; for inhibition at 0.3 µM: 300 nM; for inhibition at 0.03 µM: 30 nM
Description: Experimental method: According to the instructions of the HTRF KinEASE-TK kit (Cisbio), the compounds of the present disclosure were tested for their inhibitory effects on the VEGFR2 enzyme activity. After pre-incubation of the VEGFR2 enzyme and different concentrations of test compounds at room temperature for 30 min, a substrate and adenosine triphosphate (ATP) were added to initiate the reaction. After incubation at room temperature for 40 min, TK antibody-cryptate and streptavidin-XL665 were added, and the test was performed after incubation at room temperature for 45 min. With the solvent group (DMSO) as the negative control and the buffer group (without VEGFR2 enzyme) as the blank control, the relative inhibitory activity percentages (i.e., inhibition rates) of different concentrations of the compounds were computed as per the following formula:
as §1, §2, §3, §4

[1] = 10 nM (Table 2), read-out: Inhibition rate on RET-V804M
[2] = read-out: Inhibition rate on RET-V804M

Chain of VEGFR2 (P35968 20-1356, species assumed): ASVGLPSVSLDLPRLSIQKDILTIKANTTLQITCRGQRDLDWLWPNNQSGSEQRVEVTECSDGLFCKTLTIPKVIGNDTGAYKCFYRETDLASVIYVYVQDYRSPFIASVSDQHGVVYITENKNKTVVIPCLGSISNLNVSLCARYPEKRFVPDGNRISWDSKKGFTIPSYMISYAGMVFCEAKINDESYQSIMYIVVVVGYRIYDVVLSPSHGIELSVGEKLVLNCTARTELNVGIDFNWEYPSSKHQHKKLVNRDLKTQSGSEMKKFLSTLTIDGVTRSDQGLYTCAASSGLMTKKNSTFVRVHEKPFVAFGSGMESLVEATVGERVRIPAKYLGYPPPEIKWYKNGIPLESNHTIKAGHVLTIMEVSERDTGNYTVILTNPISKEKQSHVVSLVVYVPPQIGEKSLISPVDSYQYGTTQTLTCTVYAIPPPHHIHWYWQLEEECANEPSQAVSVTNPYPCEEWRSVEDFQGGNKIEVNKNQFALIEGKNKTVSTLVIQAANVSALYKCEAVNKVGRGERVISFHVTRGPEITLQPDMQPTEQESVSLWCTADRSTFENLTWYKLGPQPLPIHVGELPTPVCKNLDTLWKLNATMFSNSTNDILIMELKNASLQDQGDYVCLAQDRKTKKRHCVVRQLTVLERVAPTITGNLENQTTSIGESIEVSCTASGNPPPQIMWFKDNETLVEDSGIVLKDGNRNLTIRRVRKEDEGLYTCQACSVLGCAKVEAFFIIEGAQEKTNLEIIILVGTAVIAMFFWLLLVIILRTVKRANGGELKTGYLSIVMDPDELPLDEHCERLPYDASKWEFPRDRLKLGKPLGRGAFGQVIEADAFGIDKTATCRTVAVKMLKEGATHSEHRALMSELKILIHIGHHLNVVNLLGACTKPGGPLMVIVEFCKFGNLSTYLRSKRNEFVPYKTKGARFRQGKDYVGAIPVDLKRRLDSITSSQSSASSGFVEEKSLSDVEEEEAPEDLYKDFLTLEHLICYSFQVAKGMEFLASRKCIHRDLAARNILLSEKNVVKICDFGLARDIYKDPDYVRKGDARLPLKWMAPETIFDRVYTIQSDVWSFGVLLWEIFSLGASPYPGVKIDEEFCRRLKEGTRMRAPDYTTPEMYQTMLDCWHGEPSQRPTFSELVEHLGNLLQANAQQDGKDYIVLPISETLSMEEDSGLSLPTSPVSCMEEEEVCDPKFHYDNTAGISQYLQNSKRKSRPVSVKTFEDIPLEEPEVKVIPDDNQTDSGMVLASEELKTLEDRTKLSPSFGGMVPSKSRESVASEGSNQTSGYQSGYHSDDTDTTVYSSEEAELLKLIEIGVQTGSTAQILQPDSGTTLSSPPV
Chain of RET-V804M (P07949 29-1114 V804M): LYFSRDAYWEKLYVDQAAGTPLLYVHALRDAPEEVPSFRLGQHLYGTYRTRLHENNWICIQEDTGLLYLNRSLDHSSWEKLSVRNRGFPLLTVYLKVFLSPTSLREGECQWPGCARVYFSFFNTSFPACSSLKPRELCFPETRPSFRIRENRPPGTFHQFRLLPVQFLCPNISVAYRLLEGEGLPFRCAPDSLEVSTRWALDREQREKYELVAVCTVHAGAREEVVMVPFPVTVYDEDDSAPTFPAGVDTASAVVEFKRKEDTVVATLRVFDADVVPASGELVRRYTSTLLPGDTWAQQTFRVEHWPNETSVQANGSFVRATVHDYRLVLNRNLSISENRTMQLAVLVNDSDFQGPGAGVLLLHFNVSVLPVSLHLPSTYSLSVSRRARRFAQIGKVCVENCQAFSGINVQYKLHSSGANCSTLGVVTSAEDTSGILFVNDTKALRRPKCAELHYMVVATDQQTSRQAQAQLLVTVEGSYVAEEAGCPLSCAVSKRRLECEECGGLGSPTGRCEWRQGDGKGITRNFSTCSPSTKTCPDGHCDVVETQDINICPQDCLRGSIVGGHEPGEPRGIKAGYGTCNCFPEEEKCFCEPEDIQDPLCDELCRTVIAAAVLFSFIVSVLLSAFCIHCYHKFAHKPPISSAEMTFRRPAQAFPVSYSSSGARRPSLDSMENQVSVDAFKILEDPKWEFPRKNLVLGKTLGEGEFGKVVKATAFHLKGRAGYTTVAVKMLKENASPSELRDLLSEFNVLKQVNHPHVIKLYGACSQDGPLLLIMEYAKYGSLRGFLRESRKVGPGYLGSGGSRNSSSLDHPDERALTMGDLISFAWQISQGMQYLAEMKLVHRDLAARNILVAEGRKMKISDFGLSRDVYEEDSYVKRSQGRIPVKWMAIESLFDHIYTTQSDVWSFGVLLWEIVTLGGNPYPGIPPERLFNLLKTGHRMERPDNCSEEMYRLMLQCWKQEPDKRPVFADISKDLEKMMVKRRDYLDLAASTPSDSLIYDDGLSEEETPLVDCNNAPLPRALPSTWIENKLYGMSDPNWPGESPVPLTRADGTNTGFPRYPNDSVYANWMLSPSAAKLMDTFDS

| Structure (SMILES) | IC50 (RET-V804M) [nM] | inhibition at 0.1 µM (VEGFR2; 100 nM) [%] | inhibition at 0.01 µM (RET-V804M; [1]) [%] | inhibition at 0.3 µM (VEGFR2) [%] | also measured |
| --- | --- | --- | --- | --- | --- |
| Cc1cc(Nc2cc(C)[nH]n2)nc(-c2ccc(N3CC4CC(C3)N4Cc3ccc(F)cn3)nc2)n1 [Compound 70, 2-(6-(6-((5-fluoropyridin-2-yl)methyl)-3,6-diazabicyclo[3.1.1]heptan-3-yl)pyridin-3-yl)-6-methyl-N-(5-methyl-1H-pyrazol-3-yl)pyrimidin-4-amine] | 41.4 ± 3.73 | 14 |  |  |  |
| Cc1cc(Nc2cc(C)[nH]n2)nc(-c2ccc(N3CC4CC(C3)N4C(C)c3ccc(-n4cccn4)nc3)nc2)n1 (single isomer, unassigned) [Compound 125-2] |  |  | 82 | 63 |  |
| COc1ccc(CN2CCN(c3ccc(-c4nc(C)cc(Nc5cc(C)[nH]n5)n4)cn3)CC2)cc1 [Compound 23, 2-(6-(4-(4-methoxybenzyl)piperazin-1-yl)pyridin-3-yl)-6-methyl-N-(5-methyl-1H-pyrazol-3-yl)pyrimidin-4-amine] |  |  |  |  | inhibition at 0.01 µM (RET-V804M; [2]): 47%; inhibition at 0.1 µM (VEGFR2): -10% |
| Cc1cc(Nc2cc(C)[nH]n2)nc(-c2ccc(N3C[C@H]4C[C@@H](C3)N4C(C)c3ccc(-n4cc(F)cn4)nc3)nc2)n1 (single isomer, unassigned) [Compound 52-2] | 13 ± 2.34 |  |  | 12 |  |
| Cc1ccc(CN2C3CC2CN(c2ccc(-c4nc(C)cc(Nc5cc(C)[nH]n5)n4)cn2)C3)cc1 [Compound 80, 6-methyl-N-(5-methyl-1H-pyrazol-3-yl)-2-(6-(6-(4-methylbenzyl)-3,6-diazabicyclo[3.1.1]heptan-3-yl)pyridin-3-yl)pyrimidin-4-amine] |  |  |  |  | inhibition at 0.01 µM (RET-V804M; [2]): 51%; inhibition at 0.1 µM (VEGFR2): -10% |
| Cc1cc(Nc2cc(C)[nH]n2)nc(-c2ccc(N3CC4CC(C3)N4Cc3ccc(-n4cc(F)c(C5CC5)n4)nc3)nc2)n1 [Compound 124, 2-(6-(6-((6-(3-cyclopropyl-4-fluoro-1H-pyrazol-1-yl)pyridin-3-yl)methyl)-3,6-diazabicyclo[3.1.1]heptan-3-yl)pyridin-3-yl)-6-methyl-N-(5-methyl-1H-pyrazol-3-yl)pyrimidin-4-amine] | 10.7 ± 0.98 |  |  |  | inhibition at 0.03 µM (VEGFR2): 41% |
| Cc1cc(Nc2cc(C)[nH]n2)nc(-c2ccc(N3CC4CC(C3)N4Cc3ccc(Cl)cc3)nc2)n1 [Compound 82, 2-(6-(6-(4-chlorobenzyl)-3,6-diazabicyclo[3.1.1]heptan-3-yl)pyridin-3-yl)-6-methyl-N-(5-methyl-1H-pyrazol-3-yl)pyrimidin-4-amine] |  | 15 | 43 |  |  |
| COc1ccc(F)c(CN2C3CC2CN(c2ccc(-c4nc(C)cc(Nc5cc(C)[nH]n5)n4)cn2)C3)c1 [Compound 96, 2-(6-(6-(2-fluoro-5-methoxybenzyl)-3,6-diazabicyclo[3.1.1]heptan-3-yl)pyridin-3-yl)-6-methyl-N-(5-methyl-1H-pyrazol-3-yl)pyrimidin-4-amine] |  | 4 |  |  | inhibition at 0.1 µM (RET-V804M; 100 nM (Table 2), read-out: Inhibition rate on RET-V804M): 84% |
| COc1ccc(-c2ccc(CN3C4CC3CN(c3ccc(-c5nc(C)cc(Nc6cc(C)[nH]n6)n5)cn3)C4)cn2)cn1 [Compound 7, 2-(6-(6-((6′-methoxy-[2,3′-dipyridyl]-5-yl)methyl)-3,6-diazabicyclo[3.1.1]heptan-3-yl)pyridin-3-yl)-6-methyl-N-(5-methyl-1H-pyrazol-3-yl)pyrimidin-4-amine] |  | 16 | 46 |  |  |
| Cc1cc(Nc2cc(C)[nH]n2)nc(-c2ccc(N3CC4CC(C3)N4Cc3ccc(-n4cc(C)c(C)n4)nc3)nc2)n1 [Compound 121, 2-(6-(6-((6-(3,4-dimethyl-1H-pyrazol-1-yl)pyridin-3-yl)methyl)-3,6-diazabicyclo[3.1.1]heptan-3-yl)pyridin-3-yl)-6-methyl-N-(5-methyl-1H-pyrazol-3-yl)pyrimidin-4-amine] | 6.22 ± 1.39 | 37 |  |  |  |
| Cc1cc(Nc2cc(C)[nH]n2)nc(-c2ccc(N3CC4CC(C3)N4Cc3ccc(-n4nccc4OC4CC4)nc3)nc2)n1 [Compound 30, 2-(6-(6-((6-(5-cyclopropoxy-1H-pyrazol-1-yl)pyridin-3-yl)methyl)-3,6-diazabicyclo[3.1.1]heptan-3-yl)pyridin-3-yl)-6-methyl-N-(5-methyl-1H-pyrazol-3-yl)pyrimidin-4-amine] |  |  | 88 |  | inhibition at 0.03 µM (VEGFR2): 51% |
| Cc1cc(Nc2cc(C)[nH]n2)nc(-c2ccc(N3CC4CC(C3)N4Cc3ccc(-c4cccn4C)nc3)nc2)n1 [Compound 128, 6-methyl-N-(5-methyl-1H-pyrazol-3-yl)-2-(6-(6-((6-(1-methyl-1H-pyrrol-2-yl)pyridin-3-yl)methyl)-3,6-diazabicyclo[3.1.1]heptan-3-yl)pyridin-3-yl)pyrimidin-4-amine] |  | 20 | 48 |  |  |
| Cc1cc(Nc2cc(C)[nH]n2)nc(-c2ccc(N3CC4CC(C3)N4C(=O)c3ccc(-n4cc(F)cn4)nc3)nc2)n1 [Compound 26, (6-(4-fluoro-1H-pyrazol-1-yl)pyridin-3-yl)(3-(5-(4-methyl-6-((5-methyl-1H-pyrazol-3-yl)-amino)pyrimidin-2-yl)pyridin-2-yl)-3,6-diazabicyclo[3.1.1]heptan-6-yl)methanone] |  |  | 83 | 64 |  |
| Cc1cc(Nc2cc(C)[nH]n2)nc(-c2ccc(N3CC4CC(C3)N4Cc3ccc(-n4ccc(CO)n4)nc3)nc2)n1 [Compound 137, (1-(5-((3-(5-(4-methyl-6-((5-methyl-1H-pyrazol-3-yl)-amino)pyrimidin-2-yl)pyridin-2-yl)-3,6-diazabicyclo[3.1.1]heptan-6-yl)methyl)pyridin-2-yl)-1H-pyrazol-3-yl)methanol] |  |  | 93 |  | inhibition at 0.03 µM (VEGFR2): 26% |
| CCOc1ccc(CN2C3CC2CN(c2ccc(-c4nc(C)cc(Nc5cc(C)[nH]n5)n4)cn2)C3)cc1 [Compound 41, 2-(6-(6-(4-ethoxybenzyl)-3,6-diazabicyclo[3.1.1]heptan-3-yl)pyridin-3-yl)-6-methyl-N-(5-methyl-1H-pyrazol-3-yl)pyrimidin-4-amine] |  | 22 | 64 |  |  |
| Cc1cc(Nc2cc(C)[nH]n2)nc(-c2ccc(N3CC4CC(C3)N4Cc3ccc(-n4nccc4C(C)C)nc3)nc2)n1 [Compound 12, 2-(6-(6-((6-(5-isopropyl-1H-pyrazol-1-yl)pyridin-3-yl)methyl)-3,6-diazabicyclo[3.1.1]heptan-3-yl)pyridin-3-yl)-6-methyl-N-(5-methyl-1H-pyrazol-3-yl)pyrimidin-4-amine] | 6.94 ± 0.78 |  |  | 62 |  |
| Cc1cc(Nc2cc(C)[nH]n2)nc(-c2ccc(N3CC4CC(C3)N4Cc3ccc(-c4ccc(F)[nH]4)nc3)nc2)n1 [Compound 131, 2-(6-(6-((6-(5-fluoro-1H-pyrrol-2-yl)pyridin-3-yl)methyl)-3,6-diazabicyclo[3.1.1]heptan-3-yl)pyridin-3-yl)-6-methyl-N-(5-methyl-1H-pyrazol-3-yl)pyrimidin-4-amine] |  |  | 72 |  | inhibition at 0.03 µM (VEGFR2): 50% |
| Cc1cc(Nc2cc(C)[nH]n2)nc(-c2ccc(N3CCC(Oc4cncc(F)c4)CC3)nc2)n1 [Compound 29, 2-(6-(4-((5-fluoropyridin-3-yl)oxy)piperidin-1-yl)pyridin-3-yl)-6-methyl-N-(5-methyl-1H-pyrazol-3-yl)pyrimidin-4-amine] |  |  | 52 | 47 |  |
| Cc1cc(Nc2cc(C)[nH]n2)nc(-c2ccc(N3CC4CC(C3)N4Cc3ccc(-n4cc5c(n4)CCC5)nc3)nc2)n1 [Compound 25] | 6.29 ± 0.9 |  |  | 53 |  |
